Assay results taken from article PMC11510191, “Exploring Benzo[h]chromene Derivatives as Agents against Protozoal and Mycobacterial Infections” (Pharmaceuticals, 2024).
pIC50: −log10 of the molar value. Values after ≈ are worked out from the molar mass of the structure shown. Like-named read-outs stand apart in the source and are kept apart here.

Assays:
T. cruzi epimastigotes = assay: Trypanocidal activity on T. cruzi epimastigotes (CL-B5 lacZ, CPRG); assay type: cell-based, Trypanosoma cruzi clone CL-B5; details: for Selectivity Index L929/ T. cruzi: SI = CC50 L929/IC50 parasites; for pIC50: 72 h
Experimental: For in vitro studies of T. cruzi. the clone CL-B5 was used. Parasites were stably transfected with the Escherichia coli β-galactosidase gene (lacZ), provided by Facultad de Farmacia (Universidad Complutense de Madrid). Epimastigotes were grown at 28 °C in liver infusion tryptose broth (Difco, Detroit, MI, USA) with 10% fetal bovine serum (FBS) (Gibco, Carlsbad, CA, USA), penicillin (Ern S.A., Barcelona, Spain), and streptomycin (Reig Jofré S.A., Barcelona. Spain), as described previously, and harvested during the exponential growth phase. Briefly, the screening assay was performed in 96-well microplates (Sarstedt, Inc., Newton, NC, USA) with cultures that had not reached the stationary phase. Briefly, epimastigotes were seeded at 2 × 10^5 parasites/mL in 200 µL growth media. The plates were then incubated with the respective compounds at 28 °C for 72 h. Afterwards, 50 µL of CPRG solution was added, resulting in a final concentration of 200 µM. The plates were incubated at 37 °C for an additional 4 h and then read at 595 nm. Each concentration was tested in triplicate. […] These values were calculated from the sigmoidal dose–response curve adjustment using the statistical software program Graph-Pad Prims 3.0. Benznidazole was used as a reference drug.

[1] = system: M. tuberculosis CIPTIR -D152; assay: MIC broth microdilution; assay type: cell-based; details: Mycobacterium tuberculosis
[2] = system: M. tuberculosis CIPTIR-F296; assay: MIC broth microdilution; assay type: cell-based; details: Mycobacterium tuberculosis, CIPTIRF296
[3] = system: M. tuberculosis ATCC H37Rv; assay: MIC broth microdilution; assay type: cell-based; details: Mycobacterium tuberculosis, H37RV
M. abscessus LIID-01 = assay: MIC broth microdilution; assay type: cell-based; details: Mycobacteroides abscessus, LIID01, 72 h
M. abscessus LIID-02 = assay: MIC broth microdilution; assay type: cell-based; details: Mycobacteroides abscessus, LIID02, 72 h
M. abscessus LIID-03 = assay: MIC broth microdilution; assay type: cell-based; details: Mycobacteroides abscessus, LIID03, 72 h
M. fortuitum LIID-01 = assay: MIC broth microdilution; assay type: cell-based; details: Mycolicibacterium fortuitum, LIID01, 72 h
[4] = system: M. intracellulare LIID-01; assay: MIC broth microdilution; assay type: cell-based; details: Mycobacterium intracellulare, LIID01
[5] = system: M. intracellulare LIID-02; assay: MIC broth microdilution; assay type: cell-based; details: Mycobacterium intracellulare, LIID02
E. coli (G−) = assay: MIC broth microdilution; assay type: cell-based; details: Escherichia coli, 24 h
P. aeruginosa (G−) = assay: MIC broth microdilution; assay type: cell-based; details: Pseudomonas aeruginosa, 24 h
S. typhi (G−) = assay: MIC broth microdilution; assay type: cell-based; details: Salmonella enterica, 24 h
S. aureus (G+) = assay: MIC broth microdilution; assay type: cell-based; details: Staphylococcus aureus, 24 h
L. innocua (G+) = assay: MIC broth microdilution; assay type: cell-based; details: Listeria innocua, 24 h
L. monocytogenes (G+) = assay: MIC broth microdilution; assay type: cell-based; details: Listeria monocytogenes, 24 h
E. faecalis (G+) = assay: MIC broth microdilution; assay type: cell-based; details: Enterococcus faecalis, 24 h
B. cereus (G+) = assay: MIC broth microdilution; assay type: cell-based; details: Bacillus cereus, 24 h
M. luteus (G+) = assay: MIC broth microdilution; assay type: cell-based; details: Micrococcus luteus, 24 h
[6] = Cytotoxicity on L929 fibroblasts (resazurin); details: mouse
[7] = system: Leishmania infantum (L. i) promastigotes; assay: Leishmanicidal activity on L. infantum promastigotes (resazurin); details: for pIC50: Leishmania infantum, 48 h, read-out: Leishmanicidal Activity IC50—L. i; for Selectivity Index L929/ L. i: SI = CC50 L929/IC50 parasites
Experimental: (§1) The culture of L. braziliensis (MHOM/CO/88/UA301) and L. infantum (MCAN/ES/92/BCN83) was obtained from the Facultad de Farmacia, Universidad Complutense de Madrid, Spain.
(§2) The maintenance of the strains, the form of cultivation, and the isolation of shape promastigota followed the procedures described by Roldós et al. [8]. The promastigotes were grown at 22 °C in Schneider’s Drosophila medium supplemented with 20% FBS. The assay was performed using a modification of a previous method [47]. Promastigotes (2 × 10^6 parasites/well) were cultured in 96-well plastic plates. Compounds were dissolved in dimethylsulfoxide (DMSO). Different dilutions of the compounds up to a 200 µL final volume were added. After 48 h at 26 °C, 20 µL of 2 mM resazurin solution was added and the oxidation–reduction was quantified at 570 and 600 nm. The solution of resazurin was prepared at 2.5 mM in phosphate-buffered solution (PBS), pH 7.4, and filtered through 0.22 µM prior to use. All tests were carried out in triplicate. Resazurin sodium salt was obtained from Sigma–Aldrich (St. Louis, MO, USA) and stored at 4 °C protected from light. The efficacy of each compound was estimated by calculating the IC50 values.

[8] = system: Leishmania brazilensis (L. b) promastigotes; assay: Leishmanicidal activity on L. braziliensis promastigotes (resazurin); details: for pIC50: Leishmania, 48 h, read-out: Leishmanicidal Activity IC50—L. b; for Selectivity Index L929/ L. b: SI = CC50 L929/IC50 parasites
Experimental: as §1, §2

[9] = system: NCTC929 fibroblast cells (L929); assay: Cytotoxicity on L929 fibroblasts (resazurin); details: L929 fibroblasts
in vitro = details: mouse
[10] = Trypanosoma cruzi, epimastigotes, read-out: Trypanocidal Activity IC50 T. cruzi

Compound | MIC [1] [µg/mL] | MIC [2] [µg/mL] | MIC [3] [µg/mL] | MIC (M. abscessus LIID-01) [µg/mL] | MIC (M. abscessus LIID-02) [µg/mL] | MIC (M. abscessus LIID-03) [µg/mL] | MIC (M. fortuitum LIID-01) [µg/mL] | MIC [4] [µg/mL] | MIC [5] [µg/mL] | MIC (E. coli (G−)) [µg/mL] | MIC (P. aeruginosa (G−)) [µg/mL] | MIC (S. typhi (G−)) [µg/mL] | MIC (S. aureus (G+)) [µg/mL] | MIC (L. innocua (G+)) [µg/mL] | MIC (L. monocytogenes (G+)) [µg/mL] | MIC (E. faecalis (G+)) [µg/mL] | MIC (B. cereus (G+)) [µg/mL] | MIC (M. luteus (G+)) [µg/mL] | pIC50 [7] | pIC50 [8] | further results
C#CCCC(=O)Oc1c2c(c3ccccc3c1OC(=O)CCC#C)OC(C)(C)C=C2 [Compound 1a] | > 200 | > 200 | > 200 | > 200 | > 200 | > 200 | > 200 | 50 (≈ 124 µM) | > 200 | > 200 | > 200 | > 200 | 100 (≈ 248 µM) | > 200 | > 200 | > 200 | > 200 | > 200 | 4.60 | 4.97 | Selectivity Index L929/ T. cruzi (T. cruzi epimastigotes): 6; pIC50 (T. cruzi epimastigotes; [10]): 4.72; CC50 at 24 h [6]: 106 µM; Selectivity Index L929/ L. i [7]: 4; Selectivity Index L929/ L. b [8]: 10
Cc1ccc(S(=O)(=O)n2cc(CCC(=O)Oc3c4c(c5ccccc5c3OC(=O)CCc3cn(S(=O)(=O)c5ccc(C)cc5)nn3)OC(C)(C)C=C4)nn2)cc1 [Compound 2f] | > 200 | > 200 | > 200 | > 200 | > 200 | > 200 | > 200 | 50 (≈ 62.7 µM) | > 200 | > 200 | > 200 | > 200 | > 200 | > 200 | > 200 | > 200 | > 200 | > 200 | 4.42 | 4.84 | Selectivity Index L929/ T. cruzi (T. cruzi epimastigotes): 2; pIC50 (T. cruzi epimastigotes; Trypanosoma cruzi, read-out: Trypanocidal Activity IC50 T. cruzi, epimastigotes, 72 h): 4.67; pIC50 (T. cruzi epimastigotes; epimastigotes, read-out: Trypanocidal Activity IC50 T. cruzi): 4.68; CC50 at 24 h [6]: 31.8 µM; Cytotoxicity (in words) [9]: most cytotoxic; Selectivity Index L929/ L. i [7]: 1; Selectivity Index L929/ L. b [8]: 2
CC(=O)O[C@@H]1[C@@H](OC(C)=O)[C@H](OC(C)=O)CO[C@H]1n1cc(CCCC(=O)Oc2c3c(c4ccccc4c2OC(=O)CCCc2cn([C@@H]4OC[C@@H](OC(C)=O)[C@H](OC(C)=O)[C@H]4OC(C)=O)nn2)OC(C)(C)C=C3)nn1 [Compound 3e] | > 200 | > 200 | > 200 | > 200 | > 200 | > 200 | > 200 | 50 (≈ 48.4 µM) | > 200 | > 200 | > 200 | 100 (≈ 96.8 µM) | > 200 | > 200 | > 200 | > 200 | > 200 | > 200 | < 3.59 | < 3.59 | pIC50 (T. cruzi epimastigotes; [10]): < 3.59; CC50 at 24 h [6]: > 256 µM
Cc1ccc(S(=O)(=O)n2cc(CCCC(=O)Oc3c4c(c5ccccc5c3OC(=O)CCCc3cn(S(=O)(=O)c5ccc(C)cc5)nn3)OC(C)(C)C=C4)nn2)cc1 [Compound 3f] | > 200 | > 200 | > 200 | 100 (≈ 121 µM) | 100 (≈ 121 µM) | 100 (≈ 121 µM) | 100 (≈ 121 µM) | 100 (≈ 121 µM) | > 200 | 100 (≈ 121 µM) | 100 (≈ 121 µM) | > 200 | 100 (≈ 121 µM) | 100 (≈ 121 µM) | 100 (≈ 121 µM) | > 200 | 100 (≈ 121 µM) | 100 (≈ 121 µM) | 4.33 | 4.75 | Selectivity Index L929/ T. cruzi (T. cruzi epimastigotes): 13; pIC50 (T. cruzi epimastigotes; [10]): 4.61; CC50 at 24 h [6]: 312 µM; Cytotoxicity (in words) [9]: no cytotoxicity; Selectivity Index L929/ L. i [7]: 7; Selectivity Index L929/ L. b [8]: 18
CC1(C)C=Cc2c(OC(=O)CCCc3cn(Cc4ccc([N+](=O)[O-])cc4)nn3)c(OC(=O)CCCc3cn(Cc4ccc([N+](=O)[O-])cc4)nn3)c3ccccc3c2O1 [Compound 3h] | > 200 | > 200 | > 200 | 100 (≈ 127 µM) | 100 (≈ 127 µM) | 100 (≈ 127 µM) | > 200 | > 200 | > 200 | > 200 | > 200 | 100 (≈ 127 µM) | 100 (≈ 127 µM) | > 200 | > 200 | > 200 | > 200 | > 200 | < 3.59 | < 3.59 | pIC50 (T. cruzi epimastigotes; [10]): < 3.59; CC50 at 24 h [6]: > 256 µM
CNC(C)C1CCC(N)C(OC2C(N)CC(N)C(OC3OCC(C)(O)C(NC)C3O)C2O)O1 (stereo not shown) [Gentamicin, reference compound] | – | – | – | – | – | – | – | – | – | 0.2 (≈ 0.419 µM) | 0.78 (≈ 1.63 µM) | 0.1 (≈ 0.209 µM) | 0.1 (≈ 0.209 µM) | 1.56 (≈ 3.27 µM) | 0.2 (≈ 0.419 µM) | 0.78 (≈ 1.63 µM) | 0.78 (≈ 1.63 µM) | 0.78 (≈ 1.63 µM) | – | – | –
CCCCCCCCCCCCCCCCOP(=O)([O-])OCC[N+](C)(C)C [Miltefosine, reference compound] | – | – | – | – | – | – | – | – | – | – | – | – | – | – | – | – | – | – | 4.60 | 4.19 | CC50 at 24 h (in vitro): 2750 µM; Selectivity Index L929/ L. i [7]: 109.7; Selectivity Index L929/ L. b [8]: 43.0
